The experiment deals with T1, CaeLox1 (Cyclocybe aegerita, UniProt A0A8A1QR86).
T1 construct: gene LOX1; codon-optimized cDNA in pET28a, E. coli BL21-Gold (DE3), Ni-NTA purified
T1 sequence (A0A8A1QR86 1-656): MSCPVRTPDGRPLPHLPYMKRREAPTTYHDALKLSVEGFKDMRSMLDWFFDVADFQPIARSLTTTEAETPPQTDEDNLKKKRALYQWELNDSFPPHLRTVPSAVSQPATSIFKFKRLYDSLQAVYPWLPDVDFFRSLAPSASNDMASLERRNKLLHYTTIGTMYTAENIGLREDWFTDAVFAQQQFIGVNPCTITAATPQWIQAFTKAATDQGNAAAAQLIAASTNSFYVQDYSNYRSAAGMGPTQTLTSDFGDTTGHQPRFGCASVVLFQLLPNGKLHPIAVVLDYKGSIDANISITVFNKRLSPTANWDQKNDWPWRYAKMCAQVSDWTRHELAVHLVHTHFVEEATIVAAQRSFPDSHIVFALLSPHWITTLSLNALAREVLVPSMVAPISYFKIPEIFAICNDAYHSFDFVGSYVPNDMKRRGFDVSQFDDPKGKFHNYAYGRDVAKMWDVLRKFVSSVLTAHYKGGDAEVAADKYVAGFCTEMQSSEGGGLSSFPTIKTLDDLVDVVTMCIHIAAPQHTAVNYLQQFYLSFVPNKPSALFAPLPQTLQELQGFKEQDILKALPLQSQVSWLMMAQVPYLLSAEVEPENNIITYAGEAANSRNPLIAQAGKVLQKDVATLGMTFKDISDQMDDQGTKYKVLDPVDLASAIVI
Put plainly: conjugated diene formation at […] nm, specific activity. Format: biochemical. Particulars: 1.25 mM PUFA, 50 mM phosphate pH 7.5, 25 °C.

For the molecule `CCCCC/C=C\C/C=C\CCCCCCCC(=O)O` [LA, linoleic acid], the specific activity entry was “we investigated the specific activities of PUFAs occurring (linoleic acid, linolenic acid)”.
